{"source": "patent US7381733B2", "about": "“Tropane derivatives having dopamine reuptake inhibitor activity for the treatment of ischemic diseases” (Neurosearch A/S, priority 2001, dated 2008)", "system": "TH positive cells in the substantia nigra", "assay": "Protection of the substantia nigra after transient global ischaemia in gerbils (TH positive cell count)", "format": "in vivo, Mongolian gerbils", "conditions": "2 mg/kg i.p. 2 minutes after end of occlusion", "method": "Protection of the Substantia Nigra after Transient Global Ischaemia in Gerbils\nIn this experiment, the neuroprotective effect of a test compound is assessed in an animal model of transient global ischaemia.\nMethod: In halothane anaesthetised gerbils, right and left carotid arteries are located and occluded for 10 minutes. Animals are kept at normal body temperature before and after the operation using heating lamps. During surgery, the gerbils are placed on heating pads, the body temperature is controlled and maintained at 37±0.5° C. The test compound is dosed at specified time points after the ischaemic insult, either i.v., i.p., s.c. or p.o.\nFourteen days later, the animals are sacrificed, brains removed and cooled to −70° C. Thereafter, the brains are sectioned in 20 μm thick sections through the substantia nigra region. Sections are stained for tyroxine hydroxylase (TH+) expression using immunohistochemistry. The number of TH+ cells in the sections is counted and the total number of TH+ cells in the substantia nigra is calculated by means of stereology. […]\nAfter 14 days, the animals were sacrificed and the brains sectioned. […] The total number of TH positive cells after ischemia or in control animals were determined by means of stereological cell counting."}
{"smiles": "CON=C[C@@H]1[C@@H](c2ccc(Cl)c(Cl)c2)CC2CC[C@H]1N2C", "note": "[test compound, (1R,2R,3S)-3-(3,4-dichlorophenyl)-tropane-2-O-methyl-aldoxime]", "values": [{"measurement": "Mean number of cells (total number of TH positive cells in the substantia nigra)", "setting": "10 min bilateral carotid artery occlusion, counted after 14 days by stereology, control 9531, ischemia 7510", "result": 10615, "unit": "cells"}, {"measurement": "number of surviving TH positive cells in the substantia nigra after ischemia, compared with untreated ischemia", "setting": "10 min carotid artery occlusion, 14 days", "result": "apparently increased"}]}
